Measured values reported in ChEMBL document CHEMBL1130754, “Structure activity relationship study of known inhibitors of the enzyme 5 alpha-reductase (5AR)” (Bioorg Med Chem Lett, 1998).

Columns and labels:
[1] = target: T1, Steroid 5-alpha-reductase (Rattus norvegicus, UniProt P24008+P31214); assay: Compound was tested for the inhibitory activity against Steroid 5-alpha-reductase in rat
T1 sequence (P24008 whole entry): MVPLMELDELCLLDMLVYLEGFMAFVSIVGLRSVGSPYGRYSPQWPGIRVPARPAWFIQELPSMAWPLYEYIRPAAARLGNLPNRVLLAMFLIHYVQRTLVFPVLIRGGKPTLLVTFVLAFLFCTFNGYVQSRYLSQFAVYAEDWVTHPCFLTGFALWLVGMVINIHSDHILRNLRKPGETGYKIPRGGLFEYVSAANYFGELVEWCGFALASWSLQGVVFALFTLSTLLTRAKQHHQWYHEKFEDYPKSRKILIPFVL
T1 sequence (P31214 whole entry): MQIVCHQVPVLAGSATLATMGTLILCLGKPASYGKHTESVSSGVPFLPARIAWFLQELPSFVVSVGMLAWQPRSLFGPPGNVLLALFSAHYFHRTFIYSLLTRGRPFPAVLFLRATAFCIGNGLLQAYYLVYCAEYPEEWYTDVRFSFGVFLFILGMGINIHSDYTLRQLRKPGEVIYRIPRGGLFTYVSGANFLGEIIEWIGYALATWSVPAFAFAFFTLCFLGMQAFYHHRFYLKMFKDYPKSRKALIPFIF

[2] = target: T2, 3-oxo-5-alpha-steroid 4-dehydrogenase 1 (Rattus norvegicus, UniProt P24008); assay: Compound was tested for the inhibitory activity against Steroid 5-alpha-reductase type 1 in rat
T2 sequence (P24008 whole entry): T1 sequence (P24008 whole entry)

Structure (SMILES)	IC50 [1]	IC50 [2]
C[C@]12CCC(=O)C=C1CC[C@@H]1[C@@H]2CC[C@]2(C)C(c3cccnc3)=CC[C@@H]12	10000 nM	
CCCCCCCCNC(=O)[C@H]1CCC2C3CCC4NC(=O)CC[C@]4(C)C3CC[C@@]21C (some centres undefined)	0.13 nM	
CC(C)(C)NC(=O)[C@H]1CCC2C3CCC4NC(=O)CC[C@]4(C)C3CC[C@@]21C (some centres undefined)	6.3 nM	
CC(C)(C)NC(=O)[C@H]1CC[C@H]2[C@@H]3CC[C@H]4NC(=O)C=C[C@]4(C)[C@H]3CC[C@]12C [FINASTERIDE]		4.2 nM
